Assay results published in publication PMC12385147, “Discovery of Novel 2-Substituted Aniline Pyrimidine Based Derivatives as Potent Mer/c-Met Dual Inhibitors with Improvement Bioavailability” (Biomolecules, 2025).
Like-named read-outs stand apart in the source and are kept apart here.

Columns and labels:
[1] = target: T1, Mer kinase (Homo sapiens, UniProt Q12866); assay: Mer kinase inhibition assay (TK-Sub-Biotin / cryptate detection); type: biochemical; conditions: means from three independent experiments
T1 construct: purchased Invitrogen (Shanghai, China)
T1 sequence (Q12866 21-999): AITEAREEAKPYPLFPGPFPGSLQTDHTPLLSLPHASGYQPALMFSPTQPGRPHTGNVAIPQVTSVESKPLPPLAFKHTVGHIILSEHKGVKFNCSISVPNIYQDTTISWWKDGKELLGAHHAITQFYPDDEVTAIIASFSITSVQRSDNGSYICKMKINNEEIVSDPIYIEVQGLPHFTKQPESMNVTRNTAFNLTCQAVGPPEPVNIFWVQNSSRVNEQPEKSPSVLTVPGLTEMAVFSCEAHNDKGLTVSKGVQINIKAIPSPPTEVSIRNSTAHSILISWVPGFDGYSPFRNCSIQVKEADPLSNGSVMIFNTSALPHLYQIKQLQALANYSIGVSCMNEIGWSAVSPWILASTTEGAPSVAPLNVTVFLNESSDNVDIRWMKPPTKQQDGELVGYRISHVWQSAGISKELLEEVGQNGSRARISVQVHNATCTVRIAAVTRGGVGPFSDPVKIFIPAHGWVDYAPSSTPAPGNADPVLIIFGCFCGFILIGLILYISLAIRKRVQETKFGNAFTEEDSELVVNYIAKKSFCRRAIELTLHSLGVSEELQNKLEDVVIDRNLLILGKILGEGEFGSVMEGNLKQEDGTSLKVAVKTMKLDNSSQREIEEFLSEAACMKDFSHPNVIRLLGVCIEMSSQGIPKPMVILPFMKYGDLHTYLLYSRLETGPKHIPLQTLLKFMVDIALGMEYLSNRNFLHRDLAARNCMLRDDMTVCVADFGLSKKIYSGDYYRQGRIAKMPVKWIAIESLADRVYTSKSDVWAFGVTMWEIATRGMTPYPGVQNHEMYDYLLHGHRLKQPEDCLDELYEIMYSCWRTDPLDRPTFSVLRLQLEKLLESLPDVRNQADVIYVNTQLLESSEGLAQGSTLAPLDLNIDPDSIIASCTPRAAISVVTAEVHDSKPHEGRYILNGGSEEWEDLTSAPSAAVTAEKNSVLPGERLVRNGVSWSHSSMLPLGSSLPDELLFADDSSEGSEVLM

[2] = test system: HepG2; assay: Antiproliferation CCK-8 assay, HepG2; type: cell-based; conditions: Homo sapiens, CCK-8, 72 h
Procedure: (§1) The HepG2, MDA-MB-231, and HCT116 cell lines were derived from our own laboratory (the laboratory of our collaborator, Dr. Xiaolei Zhou, at College of Food Science and Biology in Hebei University of Science and Technology). The antiproliferative activities were assessed using the CCK-8 assay. Cell viability was measured according to the manufacturer’s instructions for the Cell Counting Kit-8 (Meilunbio, Dalian, China). In this assay, 2.5 × 10^3 cells per well were seeded into 96-well plates.
(§2) After an initial 12 h incubation, cancer cells were exposed to varying concentrations of compound 17c for 72 h. Following CCK-8 solution addition and 2 h incubation, the absorbance at 450 nm was measured using a BioTek Synergy HTX microplate reader. Experiments included triplicate wells with three independent replicates. The IC50 values for compound 17c were derived from an analysis of the dose–response curves in GraphPad PRISM 9.5.

[3] = test system: Mer kinase phosphorylation; assay: Western blot, Mer phosphorylation in HCT116 cells; type: cell-based, human; conditions: 2.5 μM, 24 h, compared to the positive control
Procedure: Western blot assay was performed according to established protocols. HCT colon cancer cells were exposed to the specified concentration of compound 17c for 24 h, after which whole cell lysates were prepared using RAPI cell lysis buffer (Beyotime Institute of Biotechnology, Shanghai, China). Primary antibodies, purchased from Beyotime Institute of Biotechnology, were diluted at a ratio of 1:2000. The protein bands on polyvinylidene fluoride membranes were visualized and analyzed using Glyco Band-Scan Software Version 4.50. The antibody details are as follows:
Name: Phospho-MER/TYRO3 (Tyr753/Tyr685) antibody, Species: Rabit, Sequence: synthesized peptide derived from human MER/TYRO3 around the Phosphorylation site of Tyr753/Tyr685, Dilution: 1:2000, RRID number: AB_2840500, Catalogue number: AF8443, Supplier: Affinity Biosciences (Beijing, China).

[4] = Pharmacokinetics in SD rats; type: in vivo; conditions: rat; for MRT inf: read-out: MRTINF_obs
Procedure: Male and female SD rats (SLRC Laboratory Animal Inc., Shanghai, China) were used for the study. In the oral (PO) administration, 3 rats per group were given a single 10 mg/kg dose. Blood samples (100 μL per time point) were collected via jugular vein cannula and taken at 5, 15, and 30 min, and 1, 2, 4, 8, and 24 h post-dose. For the intravenous (IV) administration, 3 rats per group received 2.0 mg/kg, and blood samples were collected at 5, 15, and 30 min, and 1, 2, and 4 h after dosing. Rats were fasted overnight prior to dosing and remained fasted for 6 h post-dose. Plasma was separated by centrifugation and stored at –40 °C until analysis. Compound concentrations were determined by LC/MS/MS (Shimadzu LC-30AD), and pharmacokinetic parameters, including Cmax, Tmax, T1/2, and AUC0-inf, were calculated.

[5] = test system: PC-3 prostate cancer; assay: Antiproliferation CCK-8 assay, PC-3; type: cell-based
[6] = Plasma protein binding, equilibrium dialysis, human plasma; type: in vitro ADME; conditions: for fraction unbound at 6 h, 1 μM: human, plasma
[7] = target: T2, c-Met kinase (Homo sapiens, UniProt P08581); assay: c-Met kinase inhibition assay (TK-Sub-Biotin / cryptate detection); type: biochemical; conditions: means from three independent experiments
T2 construct: purchased Invitrogen (Shanghai, China)
T2 sequence (P08581 25-1390): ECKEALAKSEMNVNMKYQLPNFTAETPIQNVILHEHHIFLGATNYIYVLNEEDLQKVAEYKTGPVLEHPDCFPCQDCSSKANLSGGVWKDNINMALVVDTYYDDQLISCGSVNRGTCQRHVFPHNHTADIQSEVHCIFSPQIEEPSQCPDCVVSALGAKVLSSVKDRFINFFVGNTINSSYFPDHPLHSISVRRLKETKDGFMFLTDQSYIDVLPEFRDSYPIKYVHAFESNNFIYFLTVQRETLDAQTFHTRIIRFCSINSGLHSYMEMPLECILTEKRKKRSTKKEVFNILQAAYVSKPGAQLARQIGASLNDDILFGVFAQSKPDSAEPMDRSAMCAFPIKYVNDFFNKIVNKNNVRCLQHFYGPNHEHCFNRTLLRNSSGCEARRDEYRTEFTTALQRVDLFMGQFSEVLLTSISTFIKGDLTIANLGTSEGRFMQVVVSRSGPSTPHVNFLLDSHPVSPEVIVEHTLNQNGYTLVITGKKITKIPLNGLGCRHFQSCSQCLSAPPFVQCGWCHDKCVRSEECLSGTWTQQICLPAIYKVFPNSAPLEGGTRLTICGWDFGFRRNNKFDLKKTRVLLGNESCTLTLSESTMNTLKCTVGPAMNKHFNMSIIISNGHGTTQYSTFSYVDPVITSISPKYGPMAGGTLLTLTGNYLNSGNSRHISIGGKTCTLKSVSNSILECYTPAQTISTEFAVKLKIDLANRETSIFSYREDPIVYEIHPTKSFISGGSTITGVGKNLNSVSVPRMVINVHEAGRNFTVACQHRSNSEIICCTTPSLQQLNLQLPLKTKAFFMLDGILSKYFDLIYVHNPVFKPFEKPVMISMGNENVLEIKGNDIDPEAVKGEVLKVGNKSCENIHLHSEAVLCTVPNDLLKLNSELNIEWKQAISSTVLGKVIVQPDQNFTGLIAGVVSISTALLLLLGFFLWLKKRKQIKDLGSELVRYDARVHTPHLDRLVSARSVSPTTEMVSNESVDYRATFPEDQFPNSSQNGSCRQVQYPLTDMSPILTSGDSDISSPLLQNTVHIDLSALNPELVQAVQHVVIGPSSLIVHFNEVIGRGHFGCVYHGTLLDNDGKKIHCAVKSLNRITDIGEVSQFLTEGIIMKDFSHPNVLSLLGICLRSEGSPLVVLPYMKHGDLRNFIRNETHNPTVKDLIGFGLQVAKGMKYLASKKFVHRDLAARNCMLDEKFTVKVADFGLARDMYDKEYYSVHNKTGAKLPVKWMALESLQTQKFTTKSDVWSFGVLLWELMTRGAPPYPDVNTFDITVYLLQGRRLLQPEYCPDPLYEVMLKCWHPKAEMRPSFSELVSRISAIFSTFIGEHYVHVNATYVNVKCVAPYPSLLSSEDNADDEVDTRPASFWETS

[8] = test system: CAKI-1 renal cancer; assay: Antiproliferation CCK-8 assay, CAKI-1; type: cell-based
[9] = Plasma protein binding, equilibrium dialysis, rat plasma; type: in vitro ADME
[10] = target: hERG potassium channel (Homo sapiens, UniProt Q12809); assay: hERG potassium channel QPatch automated patch clamp in CHO cells
Sequence of hERG potassium channel (Q12809 whole entry): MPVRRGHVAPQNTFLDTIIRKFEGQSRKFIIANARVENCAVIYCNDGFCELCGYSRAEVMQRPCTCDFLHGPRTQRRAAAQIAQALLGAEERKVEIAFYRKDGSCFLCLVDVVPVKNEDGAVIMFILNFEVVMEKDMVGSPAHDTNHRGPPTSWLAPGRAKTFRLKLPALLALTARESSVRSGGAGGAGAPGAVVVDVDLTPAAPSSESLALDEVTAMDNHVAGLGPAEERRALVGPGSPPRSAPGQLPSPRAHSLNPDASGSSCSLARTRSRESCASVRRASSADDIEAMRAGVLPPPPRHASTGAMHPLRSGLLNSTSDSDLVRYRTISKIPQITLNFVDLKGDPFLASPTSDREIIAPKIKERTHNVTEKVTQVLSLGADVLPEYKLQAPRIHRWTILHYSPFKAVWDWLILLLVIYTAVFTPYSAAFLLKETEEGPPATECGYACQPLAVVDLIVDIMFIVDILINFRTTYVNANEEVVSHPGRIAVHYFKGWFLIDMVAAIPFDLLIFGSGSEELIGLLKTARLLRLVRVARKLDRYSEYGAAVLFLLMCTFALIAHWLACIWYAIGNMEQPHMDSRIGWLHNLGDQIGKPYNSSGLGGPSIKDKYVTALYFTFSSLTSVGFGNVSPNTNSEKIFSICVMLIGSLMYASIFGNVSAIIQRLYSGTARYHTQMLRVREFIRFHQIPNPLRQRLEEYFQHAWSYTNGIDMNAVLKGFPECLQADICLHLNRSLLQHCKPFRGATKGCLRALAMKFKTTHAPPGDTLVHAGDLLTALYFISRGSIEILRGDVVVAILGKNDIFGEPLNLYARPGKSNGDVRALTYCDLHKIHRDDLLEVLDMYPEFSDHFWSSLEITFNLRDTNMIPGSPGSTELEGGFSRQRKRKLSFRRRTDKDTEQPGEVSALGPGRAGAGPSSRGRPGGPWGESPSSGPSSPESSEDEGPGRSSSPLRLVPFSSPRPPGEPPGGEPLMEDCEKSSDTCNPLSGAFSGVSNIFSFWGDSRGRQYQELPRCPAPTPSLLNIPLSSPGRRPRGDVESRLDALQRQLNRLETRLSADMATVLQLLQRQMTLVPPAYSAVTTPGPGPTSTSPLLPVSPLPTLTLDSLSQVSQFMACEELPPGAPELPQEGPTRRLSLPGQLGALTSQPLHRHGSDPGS

[11] = test system: MDA-MB-231; assay: Antiproliferation CCK-8 assay, MDA-MB-231; type: cell-based; conditions: Homo sapiens, CCK-8, 72 h
Procedure: as §1, §2

[12] = both sexes, plasma, iv, SD rats, 2 mg/kg
[13] = both sexes, plasma, po, SD rats, 10 mg/kg

Compound: Cc1c(C(=O)Nc2ccc(Oc3ccnc(Nc4cccc(OC5CCN(C)CC5)c4)n3)cc2)c(=O)n(-c2ccccc2)n1C [compound 17c, 1,5-dimethyl-N-(4-((2-((3-((1-methylpiperidin-4-yl)oxy)phenyl)amino)pyrimidin-4-yl)oxy)phenyl)-3-oxo-2-phenyl-2,3-dihydro-1H-pyrazole-4-carboxamide]
- IC50 [1]: 6.4 ± 1.8 nM
- IC50 [2]: 460 ± 60 nM
- inhibition of Mer kinase phosphorylation [3]: significantly inhibited the phosphorylation
- AUC(0-t) [4, 12]: 2150 ng·h/mL
- half-life [4, 12]: 3.33 h
- clearance ([4]; both sexes, plasma, iv, SD rats, i.v., 2 mg/kg, read-out: CL_obs): 16.4 mL/min/kg
- MRT inf ([4]; both sexes, plasma, iv, SD rats, i.v., 2 mg/kg): 3.23 h
- bioavailability ([4]; both sexes, plasma, oral, SD rats, p.o. 10 mg/kg vs i.v. 2 mg/kg, read-out: F (oral bioavailability)): 45.3%
- AUC(0-t) [4, 13]: 4630 ng·h/mL
- Cmax [4, 13]: 740 ng/mL
- Tmax [4, 13]: 4 h
- half-life [4, 13]: 3.46 h
- MRT inf ([4]; both sexes, plasma, po, SD rats, p.o., 10 mg/kg): 6.52 h
- oral bioavailability, fold higher than 18c ([4]; in vivo, po): 16 fold
- IC50 ([5]; Homo sapiens, PC-3, CCK-8, read-out: IC50 PC-3 cells): 3790 ± 1090 nM
- times more effective than cabozantinib ([5]; PC-3 cells): 4.1 times
- Stability (%) ([6]; human plasma, 1 μM, 6 h at 37 °C): 99.3%
- fraction unbound at 6 h, 1 μM ([6]; human plasma, 1 μM, fraction, read-out: Mean Fu): 0.0158
- fraction unbound at 6 h, 1 μM ([6]; human plasma, 1 μM, read-out: Mean Fb (PPB) (converted)): 0.016
- plasma protein-binding affinity ([6]; species not stated (abstract)): > 95%
- IC50 [7]: 26.1 ± 7.7 nM
- fold enhancement compared to cabozantinib ([8]; CAKI-1 cells): 2.0 fold
- IC50 ([8]; Homo sapiens, CAKI-1, CCK-8, read-out: IC50 CAKI-1 cells): 2310 ± 670 nM
- Mean Fb ([9]; 1 μM): 98.2%
- Stability (%) ([9]; 1 μM, 6 h at 37 °C): 102.2%
- fraction unbound at 6 h, 1 μM ([9]; fraction, read-out: Mean Fu): 0.0178
- IC50 [10]: > 40000 nM
- IC50 [11]: 2310 ± 670 nM
